Assay results: the RepoRT retention time repository

Experiment: RP, Waters ACQUITY UPLC BEH C18, 50 × 2.1 mm, 1.7 µm, 40 °C, 0.6 mL/min, estimated dead time 0.18 min; A: water + 0.1% formic acid, pH 3; B: acetonitrile + 0.1% formic acid, pH 3; gradient (min/%B) 0/5 7/100 8/100
Conditions: stereoisomer not certain
`C/C(=C/CC[C@H](C)[C@@H]1CC[C@]2(C)C3=CCC4C(C)(C)C(=O)CC[C@]4(C)C3CC[C@@]12C)C(=O)O` (stereo partly drawn) showed an LC retention time of 6.25 min. In the case of `CC(C)=CCc1c2c(c(O)c3c1OC14C(=CC5CC1C(C)(C)OC4(CC=C(C)C(=O)O)C5=O)C3=O)C=CC(C)(C)O2` (stereo not drawn), the LC retention time is reported as 5.38 min. Molecule `CC[C@H]1NC2C[C@@]3(C(=O)N(OC)c4ccccc43)C3CC1C2CO3` (stereo partly drawn) has an LC retention time of 1.79 min. `COc1ccc2c3c(c4cc(OC)c(OC)cc4c2c1)CC1CCCN1C3` (stereo not drawn) gave an LC retention time of 2.27 min. For `COc1cc(-c2oc3cc(OC)c(OC)c(O)c3c(=O)c2OC)ccc1O`, the LC retention time was 2.66 min. Molecule `COc1c(O)ccc2c1C(OC)N(C)c1c-2ccc2cc3c(cc12)OCO3` (stereo not drawn) has an LC retention time of 2.48 min. Molecule `CCC1CN(C)CC2Cc3c([nH]c4ccccc34)C(=O)CC12` (stereo not drawn) has an LC retention time of 1.71 min. Work on `Oc1ccc(C2c3c(O)cc(O)cc3C3C(c4ccc(O)cc4)c4c(O)cc(O)cc4C23)cc1` (stereo not drawn) yielded an LC retention time of 1.77 min. Molecule `CCCCCCCCCCCCCCCC(=O)OC12CC(C)C3(O)C(C4OC4(CO)C(O)C4(O)C(=O)C(C)=CC43)C1C2(C)C` (stereo not drawn) has an LC retention time of 6.96 min. Molecule `O=C1CC(c2ccc(O)cc2)Oc2cc3c(c(O)c21)C(C(=O)c1ccc(O)cc1O)C(c1ccc(O)cc1)O3` (stereo not drawn) has an LC retention time of 2.78 min. For `CC[C@@]12CC(C(=O)OC)=C3Nc4ccccc4[C@@]34CCN(C[C@H]3O[C@H]31)C24` (stereo partly drawn), the LC retention time was 1.96 min. `COc1cc2c(cc1O)C(Cc1ccc(O)cc1)NCC2` (stereo not drawn) gave an LC retention time of 1.05 min. Molecule `CC(C)=CCC1CC23CC(CC=C(C)C)C(C)(C)C(CC=C(C)C)(C(=O)C(C(=O)c4ccc(O)c(O)c4)=C2OC1(C)C)C3=O` (stereo not drawn) has an LC retention time of 5.93 min. `CC12CCC(C(OC(=O)/C=C/c3ccc(O)cc3)C1)C2(C)C` (stereo not drawn) gave an LC retention time of 4.89 min. For `CCC(C)C(=O)C1=C(O)C2(CC=C(C)C)CC(CCC(C)(C)O)C(C)(C)C(C(CC(=O)O)c3ccccc3)=C2OC1=O` (stereo not drawn), the LC retention time was 5 min. With `CC(=O)OC(C)(C)/C=C/C(=O)[C@](C)(O)[C@H]1[C@H](O)C[C@@]2(C)C3CC=C4C(CC(=O)C(O)C4(C)C)[C@]3(C)C(=O)C[C@]12C` (stereo partly drawn) the LC retention time was 2.88 min. Molecule `CC1(C(=O)O)CCCC2(C)C3CCC4CC3(C=C4CO)CCC12` (stereo not drawn) has an LC retention time of 3.51 min. `Cn1c(-c2ccc3c(c2)OCO3)cc(=O)c2ccccc21` showed an LC retention time of 2.43 min. Molecule `COC(=O)CC(C1=C2OC(=O)C(C(=O)CC(C)C)=C(O)C2(CC=C(C)C)CC(CC=C(C)C)C1(C)C)c1ccccc1` (stereo not drawn) has an LC retention time of 6.83 min. `CC1(C)CCC[C@]2(CO)C1CC[C@@]13C[C@@H](CCC12)[C@@](O)(COC(=O)/C=C/c1ccc(O)c(O)c1)C3` (stereo partly drawn) showed an LC retention time of 3.4 min. With `COc1ccc([C@@]23Oc4cc5c(c(OC)c4[C@]2(O)[C@H](O)[C@H](C(=O)N(C)C)[C@H]3c2ccccc2)OCO5)cc1` the LC retention time was 3.26 min. `COc1cc(CCN(C)C)c2ccc3cc4c(c5c3c2c1OC5)OCO4` showed an LC retention time of 2.24 min. Work on `COc1ccc(C(=O)[C@@H](c2coc3cc(O)ccc3c2=O)C(c2ccc(O)cc2)c2ccc(O)cc2)c(OC)c1` yielded an LC retention time of 3.68 min. With `CC(=O)OC(C)(C)/C=C/C(=O)[C@](C)(O)[C@H]1[C@H](O)C[C@@]2(C)C3CC=C4C(C[C@H](OC5OC(CO)C(O)C(O)C5O)C(=O)C4(C)C)[C@]3(C)C(=O)C[C@]12C` (stereo partly drawn) the LC retention time was 2.74 min. Work on `CC[C@H]1C[C@@H]2CN3CCc4c([nH]c5ccccc45)[C@](C(=O)OC)(C2)[C@H]13` yielded an LC retention time of 2.05 min. In the case of `CCC1CC2CC3(C(=O)OC)c4[nH]c5ccccc5c4CCN(C2OC)C13` (stereo not drawn), the LC retention time is reported as 1.77 min. In the case of `CC1CC(C2CCC3N2CCCCC32CC(C)C(=O)O2)OC1=O` (stereo not drawn), the LC retention time is reported as 1.07 min. `COc1c(O)c(OC)c(C(=O)C2CC=C(CCC=C(C)C)CC2c2ccccc2)c(O)c1OC` (stereo not drawn) showed an LC retention time of 5.76 min. `CC1=CC2CC(C)C(CO)/C=C(\C)C(O)C(=O)/C=C(\C)CCC12` (stereo not drawn) gave an LC retention time of 4.1 min. Work on `COC1C2(O)COC3=CC(=O)C=CC31c1cc(O)c(O)cc1C2` (stereo not drawn) yielded an LC retention time of 1.08 min. With `C/C=C(/C)C(=O)OC1CCC2CC3(O)OC(=O)C(C)=C3CC2(C)C1C` (stereo not drawn) the LC retention time was 4.16 min. `CC(=O)OCC1=C2C(OC(=O)/C=C(/C)COC(C)=O)CC(C)C(=O)CC(=O)C3(C)OC3C2OC1=O` (stereo not drawn) showed an LC retention time of 3.5 min. `C=C(C)C(CCC(C)(C)O)Cc1c(O)cc(O)c2c1OC(c1ccc(O)cc1O)CC2=O` (stereo not drawn) gave an LC retention time of 2.97 min. `C=C(C)[C@@]12OC3(/C=C/C=C\CCCCC)O[C@@H]1C1[C@@H]4O[C@]4(CO)[C@@H](O)[C@]4(O)C(=O)C(C)=CC4[C@@]1(O3)[C@H](C)[C@H]2OC(=O)c1ccccc1` (stereo partly drawn) showed an LC retention time of 5.88 min. In the case of `C=C(C(=O)C(OC(C)=O)C(C)C1C(OC(C)=O)CC2(C)C3CCC4C(C)C(=O)C=CC45CC35CCC12C)C(C)C` (stereo not drawn), the LC retention time is reported as 5.46 min. For `C=C(C(=O)C(OC(C)=O)C(C)C1C(OC(C)=O)CC2(C)C3C4OC4C4C(C)C(=O)C=CC45CC35CCC12C)C(C)CO` (stereo not drawn), the LC retention time was 3.48 min. Molecule `CCC1C2CCCCN3CCC(C4C(C)C(=O)OC14)C23` (stereo not drawn) has an LC retention time of 1.34 min. `CCCCCCCCCCCC(=O)OC12CC(C)C3(O)C(C4OC4(CO)C(O)C4(O)C(=O)C(C)=CC43)C1C2(C)C` (stereo not drawn) gave an LC retention time of 5.96 min. Molecule `CC(C)=CC1CC(C2CCC3(C)C4=CCC5C(C)(C)C(O)CCC5(C)C4CC(C=O)=C23)C(O)O1` (stereo not drawn) has an LC retention time of 5.19 min. Molecule `COC1=C(C)C(=O)O/C1=C1\OC2CCCN3C(C4CC(C)C(=O)O4)CCC3C2C1C` (stereo not drawn) has an LC retention time of 1.55 min. Molecule `COc1ccc(-c2oc3cc(O)c(OC)c(O)c3c(=O)c2OC)cc1` has an LC retention time of 3.08 min. Molecule `CCCCCCCCCCCCO[C@@H]1O[C@@H](C)[C@H](O[C@@H]2O[C@@H](C)[C@H](OC(C)=O)[C@@H](O[C@@H]3O[C@@H](C)[C@H](OC(C)=O)[C@@H](O[C@@H]4O[C@@H](C)[C@H](OC(C)=O)[C@@H](O)[C@H]4O)[C@H]3OC(C)=O)[C@H]2O)[C@@H](O)[C@H]1O` has an LC retention time of 5.82 min. `CCC1C2CCCCN3C(C4CC(C)C(=O)O4)CC(C4C(C)C(=O)OC14)C23` (stereo not drawn) gave an LC retention time of 1.55 min. `COc1cc2c3c(c1OC)Oc1ccc(cc1)CC1c4c(cc(OC)c5c4Oc4ccc(cc4CO5)CC3N(C)CC2)CCN1C` (stereo not drawn) showed an LC retention time of 1.6 min. In the case of `COc1ccc2c(c1OC)C(=O)OC2C1c2c(cc3c(c2OC)OCO3)CCN1C` (stereo not drawn), the LC retention time is reported as 1.83 min. Work on `C=C1C2CCC3C4(C)CCCC(C)(C(=O)O)C4CCC3(C2)C1O` (stereo not drawn) yielded an LC retention time of 3.64 min. For `CCCCCCCCCCCCCC(=O)OC12CC(C)C3(O)C(C4OC4(CO)C(O)C4(O)C(=O)C(C)=CC43)C1C2(C)C` (stereo not drawn), the LC retention time was 6.55 min. In the case of `CC(C)C1CCC2(C)C3CCC45CCCC4C2(CCC(=O)C2(C)COC4(C)CCC2O4)C1N5C3` (stereo not drawn), the LC retention time is reported as 2.86 min. `COc1c2occc2cc2ccc(=O)oc12` [9-methoxy-7H-furo[3,2-g]chromen-7-one] showed an LC retention time of 2.49 min. `CC1(C)CCC[C@]2(COC(=O)/C=C/c3ccc(O)c(O)c3)C1CC[C@@]13C[C@@H](CCC12)[C@@](O)(CO)C3` (stereo partly drawn) showed an LC retention time of 3.16 min. With `CC[C@H]1NC2C[C@@]3(C(=O)N(OC)c4cc(OC)ccc43)C3CC1C2CO3` (stereo partly drawn) the LC retention time was 1.95 min. Molecule `C=CC12CN(C)C3C4COC(C[C@@H]41)[C@]1(C(=O)Nc4ccccc41)C32` (stereo partly drawn) has an LC retention time of 1.01 min. `CCCCCCCCCCCCO[C@@H]1O[C@@H](C)[C@H](OC(C)=O)[C@@H](O[C@@H]2O[C@@H](C)[C@H](OC(C)=O)[C@@H](O[C@@H]3O[C@@H](C)[C@H](OC(C)=O)[C@@H](O)[C@H]3O)[C@H]2OC(C)=O)[C@H]1O` gave an LC retention time of 6.32 min. Molecule `O=C1CC(c2ccc(O)cc2)Oc2c1c(O)cc(O)c2C1C(=O)c2c(O)cc(O)cc2OC1c1ccc(O)cc1` (stereo not drawn) has an LC retention time of 2.36 min. Work on `CC1CCC2(OC1)OC1CC3C4C(O)C(=O)C5(O)C(O)C(O)C(O)C(O)C5(C)C4CCC3(C)C1C2C` (stereo not drawn) yielded an LC retention time of 3.19 min. In the case of `CC(C)=CCC1CC2(CC=C(C)C)C(O)=C(C(=O)C(C)C)C(=O)OC2=C(C(CC(=O)O)c2ccccc2)C1(C)C` (stereo not drawn), the LC retention time is reported as 6.13 min. `C=C(C)C1CCC2(C(=O)O)CCC3(C)C(CCC4C5(C)CCC(OC(=O)/C=C/c6ccc(O)c(O)c6)C(C)(C)C5CCC43C)C12` (stereo not drawn) gave an LC retention time of 5.65 min. For `C=C1C(=O)C23C(O)CC4C(C)(C)CCCC4(CO)C2C(O)CC1C3O` (stereo not drawn), the LC retention time was 1.85 min. With `COc1ccc(-c2cc(=O)c3c(O)cc(O)cc3o2)cc1-c1c(O)cc(O)c2c(=O)cc(-c3ccc(O)cc3)oc12` the LC retention time was 3.1 min. Work on `COc1cc2c(cc1OC)-c1c3c(cc4c1C(C2)N(C)CC4)OCO3` (stereo not drawn) yielded an LC retention time of 1.84 min. Work on `CC(=O)OC1CC(O)C23COC(O)C1(C)C2CC(O)C1(C)C3=C(O)C(=O)C2(C)C(c3ccoc3)CC3OC312` (stereo not drawn) yielded an LC retention time of 2.39 min. With `C=C[C@H]1CN2CCC3c4ccccc4NC3[C@H]2C[C@@H]1/C(=C\OC)C(=O)OC` (stereo partly drawn) the LC retention time was 2.64 min. With `C/C(=C\CC/C=C(\C)CC/C=C(\C)CCC(O)C(C)(O)CO)CC/C=C(\C)CCC(O)C(C)(C)O` (stereo not drawn) the LC retention time was 4.79 min. With `COc1ccc(-c2oc3cc(O)c(OC)c(O)c3c(=O)c2OC)cc1O` the LC retention time was 2.2 min. In the case of `C=C(C(=O)C(OC(C)=O)C(C)C1C(OC(C)=O)CC2(C)C3CCC4C(C)C(=O)C=CC45CC35CCC12C)C(C)CO` (stereo not drawn), the LC retention time is reported as 4.41 min. In the case of `COc1ccc2c3c1OC1C(O)C=CC4C(C2)N(C)CCC341` (stereo not drawn), the LC retention time is reported as 0.85 min. For `C[C@@H]1O[C@@H](Oc2c(-c3ccc(O)c(O)c3)oc3cc(O)cc(O)c3c2=O)[C@H](O)[C@H](O)[C@H]1O`, the LC retention time was 0.266 min. Work on `CC(C)(O)/C=C/C(=O)[C@](C)(O)[C@H]1[C@H](O)C[C@@]2(C)C3CC=C4C(CC(=O)C(O)C4(C)C)[C@]3(C)C(=O)C[C@]12C` (stereo partly drawn) yielded an LC retention time of 2.9 min. `C/C(=C\CC/C=C(\C)CC/C=C(\C)CCC(O)C(C)(C)O)CC/C=C(\C)CCC(O)C(C)(C)O` (stereo not drawn) showed an LC retention time of 5.34 min. `COc1ccc(Cc2nccc3cc(OC)c(OC)cc23)cc1OC` [1-[(3,4-dimethoxyphenyl)methyl]-6,7-dimethoxyisoquinoline] showed an LC retention time of 1.79 min. Work on `C=C1[C@@H](O)C[C@H]2C(C)(C)CCC[C@]2(C)[C@H]1CC1C(C)=CCC2C(=O)C(OC)=CC(=O)C21c1cc(=O)c2c(O)cc(O)cc2o1` (stereo partly drawn) yielded an LC retention time of 2.12 min. `CC1(C)CCC2(C(=O)O)CC=C3C(C)(CCC4C3(C)CCC3C(C)(C)C(OC(=O)c5ccc(O)cc5)C(OC(=O)c5ccc(O)cc5)CC43C)C2C1` (stereo not drawn) showed an LC retention time of 5.54 min. `COc1cc2c3c(c1O)Oc1ccc(cc1)CC1c4c(cc(OC)c(O)c4Oc4ccc(cc4)CC3N(C)CC2)CCN1C` (stereo not drawn) showed an LC retention time of 1.44 min.
